Reference: US7342011B2, “Rifamycin analogs and uses thereof” (priority 2003, dated 2008)
In brackets after ≈: the same amount, converted by molar mass.

How the values were obtained:
Format in all cases: cell-based
[1] = tested on: E. coli; assay: MIC assay, E. coli
[2] = tested on: S. aureus; assay: MIC assay, S. aureus
[3] = tested on: E. faecalis; assay: MIC assay, E. faecalis
[4] = tested on: S. pneumo.; assay: MIC assay, S. pneumo.
[5] = tested on: H. flu; assay: MIC assay, H. flu

Row | SMILES | MIC (μg/mL) E. coli [1] [µg/mL] | MIC (μg/mL) S. aureus [2] [µg/mL] | MIC (μg/mL) E. faecalis [3] [µg/mL] | MIC (μg/mL) S. pneumo. [4] [µg/mL] | MIC (μg/mL) H. flu [5] [µg/mL]
1 | CO[C@H]1/C=C/O[C@@]2(C)Oc3c(C)c(O)c4c(=O)c(c5oc6cc(N7CCC(N)CC7)cc(O)c6nc-5c4c3C2=O)NC(=O)/C(C)=C\C=C\[C@H](C)[C@H](O)[C@@H](C)[C@@H](O)[C@@H](C)[C@H](O)[C@@H]1C [Compound 39, 25-O-deacetyl-3′-hydroxy-5′-[4-amino-1-piperidinyl]benzoxazinorifamycin] | >8 | 0.03 (≈ 35 nM) | 2 (≈ 2330 nM) | 0.001 (≈ 1.17 nM) | 0.25 (≈ 292 nM)
2 | CCOC(=O)N1CCC[C@@H]2CN(c3cc(O)c4nc5c6c7c8c(C)c(O)c6c(=O)c(c-5oc4c3)NC(=O)/C(C)=C\C=C\[C@H](C)[C@H](O)[C@@H](C)[C@@H](O)[C@@H](C)[C@H](OC(C)=O)[C@H](C)[C@@H](OC)/C=C/O[C@@](C)(O8)C7=O)C[C@@H]21 [Compound 40, 3′-hydroxy-5′-[1-ethylcarbamyl-(4aR,7aR)-octahydro-6H-pyrrolo[3,4-b]pyridin-6-yl]benzoxazinorifamycin] | >8 | 0.06 (≈ 60.2 nM) | 1 (≈ 1000 nM) | 0.008 (≈ 8.02 nM) | 0.5 (≈ 501 nM)
3 | COCCOC(=O)NC1CCN(c2cc(O)c3nc4c5c6c7c(C)c(O)c5c(=O)c(c-4oc3c2)NC(=O)/C(C)=C\C=C\[C@H](C)[C@H](O)[C@@H](C)[C@@H](O)[C@@H](C)[C@H](OC(C)=O)[C@H](C)[C@@H](OC)/C=C/O[C@@](C)(O7)C6=O)CC1 [Compound 41, 3′-hydroxy-5′-[4-methoxyethylcarbamyl-1-piperidinyl]benzoxazinorifamycin] | >8 | 0.25 (≈ 250 nM) | >8 | 0.0005 (≈ 0.499 nM) | 2 (≈ 2000 nM)
4 | CCOC(=O)N1CCCC2CN(c3cc(O)c4nc5c6c7c8c(C)c(O)c6c(=O)c(c-5oc4c3)NC(=O)C(C)=CC=CC(C)C(O)C(C)C(O)C(C)C(O)C(C)C(OC)C=COC(C)(O8)C7=O)CC21 (stereo not shown) [Compound 42] | 8 (≈ 8380 nM) | 0.008 (≈ 8.38 nM) | 2 (≈ 2090 nM) | 0.00012 (≈ 0.126 nM) | 0.5 (≈ 524 nM)
5 | CO[C@H]1/C=C/O[C@@]2(C)Oc3c(C)c(O)c4c(=O)c(c5oc6cc(N7CCC(NC(C)=O)CC7)cc(O)c6nc-5c4c3C2=O)NC(=O)/C(C)=C\C=C\[C@H](C)[C@H](O)[C@@H](C)[C@@H](O)[C@@H](C)[C@H](OC(C)=O)[C@@H]1C [Compound 44] | >8 | 0.06 (≈ 63.8 nM) | 2 (≈ 2130 nM) | 0.008 (≈ 8.5 nM) | 0.25 (≈ 266 nM)
6 | CO[C@H]1/C=C/O[C@@]2(C)Oc3c(C)c(O)c4c(=O)c(c5oc6cc(N7CCC(NC(=O)SC)CC7)cc(O)c6nc-5c4c3C2=O)NC(=O)/C(C)=C\C=C\[C@H](C)[C@H](O)[C@@H](C)[C@@H](O)[C@@H](C)[C@H](OC(C)=O)[C@@H]1C [Compound 45, 3′-hydroxy-5′-[4-S-methylthiocarbamyl-1-piperidinyl]benzoxazinorifamycin] | 8 (≈ 8220 nM) | 0.015 (≈ 15.4 nM) | 4 (≈ 4110 nM) | 0.001 (≈ 1.03 nM) | 0.5 (≈ 514 nM)
7 | CO[C@H]1/C=C/O[C@@]2(C)Oc3c(C)c(O)c4c(=O)c(c5oc6cc(N7C[C@H]8CCCN(C(C)=O)[C@H]8C7)cc(O)c6nc-5c4c3C2=O)NC(=O)/C(C)=C\C=C\[C@H](C)[C@H](O)[C@@H](C)[C@@H](O)[C@@H](C)[C@H](O)[C@@H]1C [Compound 46, 25-O-deacetyl-3′-hydroxy-5′-[1-acetyl-(4aR,7aR)-octahydro-6H-pyrrolo[3,4-b]pyridin-6-yl]benzoxazinorifamycin] | >8 | 0.004 (≈ 4.32 nM) | 2 (≈ 2160 nM) | 0.00006 (≈ 0.0649 nM) | 0.5 (≈ 541 nM)
8 | CO[C@H]1/C=C/O[C@@]2(C)Oc3c(C)c(O)c4c(=O)c(c5oc6cc(N7C[C@H]8CCCN(C(C)=O)[C@H]8C7)cc(O)c6nc-5c4c3C2=O)NC(=O)/C(C)=C\C=C\[C@H](C)[C@H](O)[C@@H](C)[C@@H](O)[C@@H](C)[C@H](OC(C)=O)[C@@H]1C [Compound 47, 3′-hydroxy-5′-[-acetyl-(4aR,7aR)-octahydro-6H-pyrrolo[3,4-b]pyridin-6-yl]benzoxazinorifamycin] | >8 | 0.008 (≈ 8.27 nM) | 1 (≈ 1030 nM) | 0.002 (≈ 2.07 nM) | 0.25 (≈ 259 nM)
9 | CO[C@H]1/C=C/O[C@@]2(C)Oc3c(C)c(O)c4c(=O)c(c5oc6cc(N7CCC(NC(=O)OC(C)(C)C)CC7)cc(O)c6nc-5c4c3C2=O)NC(=O)/C(C)=C\C=C\[C@H](C)[C@H](O)[C@@H](C)[C@@H](O)[C@@H](C)[C@H](OC(C)=O)[C@@H]1C [Compound 48, 3′-hydroxy-5,′-[4-(2,2-dimethylethyl)carbamyl-1-piperidinyl]benzoxazinorifamycin] | >8 | 0.008 (≈ 8.01 nM) | 2 (≈ 2000 nM) | 0.00025 (≈ 0.25 nM) | 1 (≈ 1000 nM)
10 | CO[C@H]1/C=C/O[C@@]2(C)Oc3c(C)c(O)c4c(=O)c(c5oc6cc(N7CCC(NC(=O)N8CCC(NC(=O)SC)CC8)CC7)cc(O)c6nc-5c4c3C2=O)NC(=O)/C(C)=C\C=C\[C@H](C)[C@H](O)[C@@H](C)[C@@H](O)[C@@H](C)[C@H](OC(C)=O)[C@@H]1C [Compound 49, 3′-hydroxy-5′-[4-(4-(S-methylthiocarbamyl)-1-piperidinylcarbonyl)amino-1-piperidinyl]benzoxazinorifamycin] | >8 | 0.06 (≈ 54.6 nM) | 8 (≈ 7280 nM) | 0.0005 (≈ 0.455 nM) | 2 (≈ 1820 nM)
11 | CO[C@H]1/C=C/O[C@@]2(C)Oc3c(C)c(O)c4c(=O)c(c5oc6cc(N7CCC(NC(=O)N8CCN(C)CC8)CC7)cc(O)c6nc-5c4c3C2=O)NC(=O)/C(C)=C\C=C\[C@H](C)[C@H](O)[C@@H](C)[C@@H](O)[C@@H](C)[C@H](OC(C)=O)[C@@H]1C [Compound 50, 3′-hydroxy-5′-[4-(4-methylpiperazinylcarbonyl)amino-1-piperidinyl]benzoxazinorifamycin] | >8 | 0.03 (≈ 29.3 nM) | 4 (≈ 3900 nM) | 0.00012 (≈ 0.117 nM) | 0.5 (≈ 488 nM)
12 | CCOC(=O)NCC1CCN(c2cc(O)c3nc4c5c6c7c(C)c(O)c5c(=O)c(c-4oc3c2)NC(=O)/C(C)=C\C=C\[C@H](C)[C@H](O)[C@@H](C)[C@@H](O)[C@@H](C)[C@H](OC(C)=O)[C@H](C)[C@@H](OC)/C=C/O[C@@](C)(O7)C6=O)CC1 [Compound 51, 3′-hydroxy-5′-[4-ethylcarbamylmethyl-1-piperidinyl]benzoxazinorifamycin] | 8 (≈ 8120 nM) | 0.06 (≈ 60.9 nM) | 8 (≈ 8120 nM) | 0.002 (≈ 2.03 nM) | 0.25 (≈ 254 nM)
13 | CO[C@H]1/C=C/O[C@@]2(C)Oc3c(C)c(O)c4c(=O)c(c5oc6cc(N7CCC(CNC(C)=O)CC7)cc(O)c6nc-5c4c3C2=O)NC(=O)/C(C)=C\C=C\[C@H](C)[C@H](O)[C@@H](C)[C@@H](O)[C@@H](C)[C@H](OC(C)=O)[C@@H]1C [Compound 55, 3′-hydroxy-5′-[4-acetylaminomethyl-1-piperidinyl]benzoxazinorifamycin] | 8 (≈ 8380 nM) | 0.008 (≈ 8.38 nM) | 1 (≈ 1050 nM) | 0.00025 (≈ 0.262 nM) | 0.5 (≈ 524 nM)
14 | CO[C@H]1/C=C/O[C@@]2(C)Oc3c(C)c(O)c4c(=O)c(c5oc6cc(N7CCC(c8ccccc8)CC7)cc(O)c6nc-5c4c3C2=O)NC(=O)/C(C)=C\C=C\[C@H](C)[C@H](O)[C@@H](C)[C@@H](O)[C@@H](C)[C@H](OC(C)=O)[C@@H]1C [Compound 57, 3′-hydroxy-5′-[4-phenyl-1-piperidinyl]benzoxazinorifamycin] | 8 (≈ 8330 nM) | 0.008 (≈ 8.33 nM) | 2 (≈ 2080 nM) | 0.0005 (≈ 0.521 nM) | 0.5 (≈ 521 nM)
15 | CO[C@H]1/C=C/O[C@@]2(C)Oc3c(C)c(O)c4c(=O)c(c5oc6cc(N7C[C@@H]8CCCN(C)[C@@H]8C7)cc(O)c6nc-5c4c3C2=O)NC(=O)/C(C)=C\C=C\[C@H](C)[C@H](O)[C@@H](C)[C@@H](O)[C@@H](C)[C@H](OC(C)=O)[C@@H]1C [Compound 58, 3′-hydroxy-5′-[1-methyl-(4aS,7aS)-octahydro-6H-pyrrolo[3,4-b]pyridin-6-yl]benzoxazinorifamycin] | >8 | 0.03 (≈ 31.9 nM) | 1 (≈ 1060 nM) | 0.004 (≈ 4.26 nM) | 0.25 (≈ 266 nM)
16 | CO[C@H]1/C=C/O[C@@]2(C)Oc3c(C)c(O)c4c(=O)c(c5oc6cc(N7C[C@@H]8CCCN(C)[C@@H]8C7)cc(O)c6nc-5c4c3C2=O)NC(=O)/C(C)=C\C=C\[C@H](C)[C@H](O)[C@@H](C)[C@@H](O)[C@@H](C)[C@H](O)[C@@H]1C [Compound 59, 25-O-deacetyl-3′-hydroxy-5′-[1-methyl-(4aS,7aS)-octahydro-6H-pyrrolo[3,4-b]pyridin-6-yl]benzoxazinorifamycin] | 4 (≈ 4460 nM) | 0.004 (≈ 4.46 nM) | 0.06 (≈ 66.9 nM) | 0.001 (≈ 1.11 nM) | 0.12 (≈ 134 nM)
17 | CO[C@H]1/C=C/O[C@@]2(C)Oc3c(C)c(O)c4c(=O)c(c5oc6cc(N7CCC(CCO)CC7)cc(O)c6nc-5c4c3C2=O)NC(=O)/C(C)=C\C=C\[C@H](C)[C@H](O)[C@@H](C)[C@@H](O)[C@@H](C)[C@H](OC(C)=O)[C@@H]1C [Compound 61, 3′-hydroxy-5′-[4-(2-hydroxyethyl)-1-piperidinyl]benzoxazinorifamycin] | >8 | 0.004 (≈ 4.31 nM) | 1 (≈ 1080 nM) | 0.00012 (≈ 0.129 nM) | 0.25 (≈ 269 nM)
